Measurements as given in ChEMBL document CHEMBL4321825, “Discovery of a Series of 5-Azaquinazolines as Orally Efficacious IRAK4 Inhibitors Targeting MyD88L265P Mutant Diffuse Large B Cell Lymphoma” (J Med Chem, 2019).
≈ marks a conversion by molar mass, not a printed value. Calls of active or inactive are those of the source. The rule behind the calls is not given here.

Experiments:
[1] = target: T1, Interleukin-1 receptor-associated kinase 4 (Homo sapiens, UniProt Q9NWZ3); test: Inhibition of IRAK4 (unknown origin) in presence of 5 mM ATP by enzymatic assay
T1 sequence (Q9NWZ3 whole entry): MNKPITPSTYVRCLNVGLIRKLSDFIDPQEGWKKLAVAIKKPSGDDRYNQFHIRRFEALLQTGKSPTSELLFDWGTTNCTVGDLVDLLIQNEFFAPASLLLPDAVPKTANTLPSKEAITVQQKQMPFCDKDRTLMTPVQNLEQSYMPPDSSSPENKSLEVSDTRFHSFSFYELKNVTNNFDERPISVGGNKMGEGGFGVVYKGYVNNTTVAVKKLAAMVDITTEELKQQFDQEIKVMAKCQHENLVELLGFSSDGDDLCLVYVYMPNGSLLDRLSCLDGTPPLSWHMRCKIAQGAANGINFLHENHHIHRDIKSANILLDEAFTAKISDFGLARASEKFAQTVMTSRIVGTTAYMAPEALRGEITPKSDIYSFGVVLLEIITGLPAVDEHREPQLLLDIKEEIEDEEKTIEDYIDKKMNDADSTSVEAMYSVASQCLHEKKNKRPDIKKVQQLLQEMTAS

[2] = target: T1, Interleukin-1 receptor-associated kinase 4; test: Inhibition of IRAK4 (unknown origin) by cell based assay
[3] = Lipophilicity, logD of the compound at pH 7.4 by shake-flask assay; assay type: physicochemical; conditions: buffer
[4] = Intrinsic clearance in human hepatocytes assessed per million cells; assay type: ADME, cell-based, Hepatocyte; conditions: read-out: CLH
[5] = Intrinsic clearance in rat hepatocytes assessed per million cells; assay type: ADME, cell-based, Hepatocyte; conditions: read-out: CLH
[6] = Intrinsic permeability in human Caco2 cells; assay type: ADME, cell-based; conditions: Caco-2
[7] = Efflux ratio in human Caco2 cells; assay type: ADME, cell-based; conditions: Caco-2
[8] = Clearance in rat at 0.5 mg/kg, iv; assay type: ADME, organism-based; conditions: in vivo
[9] = Oral bioavailability in rat at 1 mg/kg; assay type: ADME, organism-based; conditions: in vivo
[10] = target: T2, Cyclin-dependent kinase 9 (Homo sapiens, UniProt P50750); test: Inhibition of CDK9 (unknown origin) at 1 uM relative to control
T2 sequence (P50750 whole entry): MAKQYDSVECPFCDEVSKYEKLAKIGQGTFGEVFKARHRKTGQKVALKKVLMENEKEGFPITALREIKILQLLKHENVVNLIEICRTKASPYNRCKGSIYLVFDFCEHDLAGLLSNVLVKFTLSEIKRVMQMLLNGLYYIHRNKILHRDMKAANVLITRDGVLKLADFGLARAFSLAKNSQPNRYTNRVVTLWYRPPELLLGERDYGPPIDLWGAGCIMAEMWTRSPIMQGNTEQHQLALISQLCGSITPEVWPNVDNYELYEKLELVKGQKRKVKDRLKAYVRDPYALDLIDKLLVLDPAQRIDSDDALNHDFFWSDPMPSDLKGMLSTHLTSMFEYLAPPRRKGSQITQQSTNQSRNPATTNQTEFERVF

[11] = target: T3, Serine/threonine-protein kinase ULK2 (Homo sapiens) (UniProt Q8IYT8); test: Inhibition of ULK2 (unknown origin) at 1 uM relative to control
T3 sequence (whole entry): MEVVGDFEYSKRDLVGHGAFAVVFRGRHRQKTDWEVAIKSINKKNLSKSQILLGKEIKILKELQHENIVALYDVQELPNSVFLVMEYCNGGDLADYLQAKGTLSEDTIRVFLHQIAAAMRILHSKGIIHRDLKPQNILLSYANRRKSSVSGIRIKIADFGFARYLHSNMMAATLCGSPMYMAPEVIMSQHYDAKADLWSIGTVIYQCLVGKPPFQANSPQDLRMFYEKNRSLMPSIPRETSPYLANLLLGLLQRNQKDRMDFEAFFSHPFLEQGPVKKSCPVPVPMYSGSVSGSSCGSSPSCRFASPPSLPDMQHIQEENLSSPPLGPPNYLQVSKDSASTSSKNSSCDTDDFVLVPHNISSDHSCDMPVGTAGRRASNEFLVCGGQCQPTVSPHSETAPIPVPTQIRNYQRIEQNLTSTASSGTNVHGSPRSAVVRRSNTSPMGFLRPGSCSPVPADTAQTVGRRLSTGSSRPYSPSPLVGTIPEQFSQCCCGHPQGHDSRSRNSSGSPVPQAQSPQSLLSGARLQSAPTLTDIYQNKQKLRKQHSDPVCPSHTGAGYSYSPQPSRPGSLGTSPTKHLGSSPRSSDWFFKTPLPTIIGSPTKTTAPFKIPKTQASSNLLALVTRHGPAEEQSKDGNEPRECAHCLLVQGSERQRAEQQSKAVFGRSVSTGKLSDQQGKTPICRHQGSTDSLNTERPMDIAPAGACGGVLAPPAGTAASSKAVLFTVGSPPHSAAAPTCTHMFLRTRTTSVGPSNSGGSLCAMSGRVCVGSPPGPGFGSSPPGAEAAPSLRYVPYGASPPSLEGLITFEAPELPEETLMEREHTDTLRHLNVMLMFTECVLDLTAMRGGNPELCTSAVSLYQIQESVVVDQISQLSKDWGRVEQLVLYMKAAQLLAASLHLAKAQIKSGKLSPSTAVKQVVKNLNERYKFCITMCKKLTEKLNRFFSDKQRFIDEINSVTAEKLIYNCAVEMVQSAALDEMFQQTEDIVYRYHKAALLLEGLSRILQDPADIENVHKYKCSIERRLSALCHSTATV

[12] = target: Casein kinase I isoform gamma-1 (Homo sapiens) (UniProt Q9HCP0); test: Inhibition of CK1g1 (unknown origin) at 1 uM relative to control
Sequence of Casein kinase I isoform gamma-1 (Homo sapiens) (Q9HCP0 whole entry, looked up, canonical isoform): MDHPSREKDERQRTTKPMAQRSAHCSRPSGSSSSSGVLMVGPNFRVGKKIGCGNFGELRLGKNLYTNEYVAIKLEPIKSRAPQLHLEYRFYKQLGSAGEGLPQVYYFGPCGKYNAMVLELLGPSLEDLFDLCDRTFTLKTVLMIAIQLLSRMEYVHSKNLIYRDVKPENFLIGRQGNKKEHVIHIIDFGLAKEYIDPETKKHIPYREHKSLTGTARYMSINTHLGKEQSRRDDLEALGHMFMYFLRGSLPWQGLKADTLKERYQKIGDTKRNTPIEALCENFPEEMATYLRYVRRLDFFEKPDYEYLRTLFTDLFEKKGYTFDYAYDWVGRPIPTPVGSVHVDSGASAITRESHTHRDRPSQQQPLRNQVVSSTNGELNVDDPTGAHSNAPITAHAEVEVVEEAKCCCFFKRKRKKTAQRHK

[13] = target: Mitogen-activated protein kinase kinase kinase 9 (Homo sapiens) (UniProt P80192); test: Inhibition of MLK1 (unknown origin) at 1 uM relative to control
Sequence of Mitogen-activated protein kinase kinase kinase 9 (Homo sapiens) (P80192 whole entry, looked up): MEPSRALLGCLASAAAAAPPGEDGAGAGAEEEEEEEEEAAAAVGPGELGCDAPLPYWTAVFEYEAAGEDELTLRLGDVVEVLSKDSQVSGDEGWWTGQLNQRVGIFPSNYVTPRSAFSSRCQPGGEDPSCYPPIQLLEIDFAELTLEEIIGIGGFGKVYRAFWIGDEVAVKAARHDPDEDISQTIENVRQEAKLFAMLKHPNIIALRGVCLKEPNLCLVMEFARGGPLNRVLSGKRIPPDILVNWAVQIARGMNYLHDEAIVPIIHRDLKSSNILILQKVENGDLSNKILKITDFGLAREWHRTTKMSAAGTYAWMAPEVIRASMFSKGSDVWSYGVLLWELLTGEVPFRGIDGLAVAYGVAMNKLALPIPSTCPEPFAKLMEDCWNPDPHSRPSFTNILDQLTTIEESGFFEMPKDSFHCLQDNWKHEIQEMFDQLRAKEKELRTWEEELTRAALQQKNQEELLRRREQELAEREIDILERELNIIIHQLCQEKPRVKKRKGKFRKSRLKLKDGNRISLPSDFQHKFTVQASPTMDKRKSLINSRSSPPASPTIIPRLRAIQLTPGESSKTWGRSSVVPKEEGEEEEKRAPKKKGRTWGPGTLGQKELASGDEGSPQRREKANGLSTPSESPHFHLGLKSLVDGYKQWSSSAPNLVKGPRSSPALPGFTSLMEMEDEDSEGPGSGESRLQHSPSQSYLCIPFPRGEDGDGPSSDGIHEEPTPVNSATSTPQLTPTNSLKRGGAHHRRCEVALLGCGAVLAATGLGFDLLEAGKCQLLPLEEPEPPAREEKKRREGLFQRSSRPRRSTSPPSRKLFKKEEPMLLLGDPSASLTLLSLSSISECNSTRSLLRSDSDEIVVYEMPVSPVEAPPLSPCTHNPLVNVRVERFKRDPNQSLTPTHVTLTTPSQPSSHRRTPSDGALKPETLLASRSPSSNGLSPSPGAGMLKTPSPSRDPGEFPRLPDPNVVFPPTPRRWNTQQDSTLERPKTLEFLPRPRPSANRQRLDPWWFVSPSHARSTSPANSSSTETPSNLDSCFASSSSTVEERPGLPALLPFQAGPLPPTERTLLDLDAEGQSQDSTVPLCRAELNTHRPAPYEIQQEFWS

[14] = target: Interleukin-1 receptor-associated kinase 1 (Homo sapiens, UniProt P51617); test: Inhibition of IRAK1 (unknown origin)
[15] = target: Dual specificity protein kinase CLK1 (Homo sapiens, UniProt P49759); test: Inhibition of human recombinant CLK1 expressed in Escherichia coli
Sequence of Dual specificity protein kinase CLK1 (P49759 whole entry): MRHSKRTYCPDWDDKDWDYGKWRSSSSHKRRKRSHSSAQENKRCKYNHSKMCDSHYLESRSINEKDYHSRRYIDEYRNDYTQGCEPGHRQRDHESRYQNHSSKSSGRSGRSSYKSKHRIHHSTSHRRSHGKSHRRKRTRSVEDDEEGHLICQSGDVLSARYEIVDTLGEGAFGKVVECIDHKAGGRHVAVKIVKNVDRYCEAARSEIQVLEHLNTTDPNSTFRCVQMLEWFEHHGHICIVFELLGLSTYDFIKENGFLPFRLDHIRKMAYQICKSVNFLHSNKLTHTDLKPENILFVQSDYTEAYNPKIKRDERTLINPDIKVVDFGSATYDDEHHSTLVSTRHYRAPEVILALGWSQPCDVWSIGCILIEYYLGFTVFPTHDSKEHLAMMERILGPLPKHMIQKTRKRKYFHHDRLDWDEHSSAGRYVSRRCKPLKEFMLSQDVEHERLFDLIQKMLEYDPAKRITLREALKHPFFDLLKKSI

[16] = target: Dual specificity protein kinase CLK2 (Homo sapiens, UniProt P49760); test: Inhibition of human recombinant CLK2 expressed in Baculovirus system
Sequence of Dual specificity protein kinase CLK2 (P49760 whole entry): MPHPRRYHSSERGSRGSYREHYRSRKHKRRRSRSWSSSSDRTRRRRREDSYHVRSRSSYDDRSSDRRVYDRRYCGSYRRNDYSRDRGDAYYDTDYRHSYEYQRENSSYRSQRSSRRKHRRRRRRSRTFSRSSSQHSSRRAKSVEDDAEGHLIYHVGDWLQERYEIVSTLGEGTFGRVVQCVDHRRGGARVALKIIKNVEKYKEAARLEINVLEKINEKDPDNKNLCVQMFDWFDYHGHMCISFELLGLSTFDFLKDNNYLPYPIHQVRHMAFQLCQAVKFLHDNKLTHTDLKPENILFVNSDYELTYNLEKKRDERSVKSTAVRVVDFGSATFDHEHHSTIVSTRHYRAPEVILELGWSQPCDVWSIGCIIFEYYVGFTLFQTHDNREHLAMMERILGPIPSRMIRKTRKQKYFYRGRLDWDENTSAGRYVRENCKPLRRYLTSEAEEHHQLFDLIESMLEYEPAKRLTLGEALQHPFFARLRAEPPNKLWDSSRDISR

[17] = target: Dual specificity protein kinase CLK3 (Homo sapiens, UniProt P49761); test: Inhibition of human recombinant CLK3 expressed in Baculovirus system
Sequence of Dual specificity protein kinase CLK3 (P49761 whole entry): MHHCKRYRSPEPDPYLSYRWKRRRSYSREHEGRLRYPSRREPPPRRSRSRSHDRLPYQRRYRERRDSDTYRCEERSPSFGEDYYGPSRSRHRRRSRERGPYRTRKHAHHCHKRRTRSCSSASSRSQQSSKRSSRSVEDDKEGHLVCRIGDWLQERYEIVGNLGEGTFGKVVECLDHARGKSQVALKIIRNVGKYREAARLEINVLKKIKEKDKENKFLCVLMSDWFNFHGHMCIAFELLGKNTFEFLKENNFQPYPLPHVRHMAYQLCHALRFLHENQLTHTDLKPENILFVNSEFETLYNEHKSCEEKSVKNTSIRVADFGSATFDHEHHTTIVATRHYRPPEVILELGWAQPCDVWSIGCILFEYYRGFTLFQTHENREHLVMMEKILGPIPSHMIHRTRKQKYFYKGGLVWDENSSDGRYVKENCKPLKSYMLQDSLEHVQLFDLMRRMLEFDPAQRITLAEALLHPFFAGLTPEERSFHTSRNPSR

[18] = target: Dual specificity protein kinase CLK4 (Homo sapiens, UniProt Q9HAZ1); test: Inhibition of human recombinant CLK4 expressed in Baculovirus system
Sequence of Dual specificity protein kinase CLK4 (Q9HAZ1 whole entry): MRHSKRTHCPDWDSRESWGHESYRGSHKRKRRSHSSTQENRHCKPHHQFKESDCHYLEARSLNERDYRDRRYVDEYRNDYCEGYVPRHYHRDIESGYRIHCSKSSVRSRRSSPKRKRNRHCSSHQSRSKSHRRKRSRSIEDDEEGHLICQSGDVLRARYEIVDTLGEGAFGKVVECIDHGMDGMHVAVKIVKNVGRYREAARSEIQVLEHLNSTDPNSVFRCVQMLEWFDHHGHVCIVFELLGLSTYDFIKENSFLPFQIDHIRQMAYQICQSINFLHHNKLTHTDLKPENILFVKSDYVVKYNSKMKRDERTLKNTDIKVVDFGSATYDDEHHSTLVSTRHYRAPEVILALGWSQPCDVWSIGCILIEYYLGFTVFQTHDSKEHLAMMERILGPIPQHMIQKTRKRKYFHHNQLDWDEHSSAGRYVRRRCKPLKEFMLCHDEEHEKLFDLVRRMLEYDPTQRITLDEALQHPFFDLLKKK

[19] = target: Cyclin-dependent kinase 7 (Homo sapiens, UniProt P50613); test: Inhibition of CDK7 (unknown origin)
Sequence of Cyclin-dependent kinase 7 (P50613 whole entry): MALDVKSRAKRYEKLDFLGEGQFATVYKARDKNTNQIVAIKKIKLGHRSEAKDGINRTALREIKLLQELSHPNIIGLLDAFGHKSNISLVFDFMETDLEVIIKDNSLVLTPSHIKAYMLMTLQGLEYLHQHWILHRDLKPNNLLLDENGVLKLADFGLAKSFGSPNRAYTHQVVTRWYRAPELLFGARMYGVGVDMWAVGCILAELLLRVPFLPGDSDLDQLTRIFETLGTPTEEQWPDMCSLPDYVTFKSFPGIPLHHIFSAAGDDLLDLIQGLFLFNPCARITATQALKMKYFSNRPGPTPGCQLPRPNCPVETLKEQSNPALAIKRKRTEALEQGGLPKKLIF

[20] = target: CDK8/Cyclin C (Homo sapiens, UniProt P49336); test: Inhibition of human recombinant CDK8/cyclinC expressed in Baculovirus system
Sequence of CDK8/Cyclin C (P49336 whole entry): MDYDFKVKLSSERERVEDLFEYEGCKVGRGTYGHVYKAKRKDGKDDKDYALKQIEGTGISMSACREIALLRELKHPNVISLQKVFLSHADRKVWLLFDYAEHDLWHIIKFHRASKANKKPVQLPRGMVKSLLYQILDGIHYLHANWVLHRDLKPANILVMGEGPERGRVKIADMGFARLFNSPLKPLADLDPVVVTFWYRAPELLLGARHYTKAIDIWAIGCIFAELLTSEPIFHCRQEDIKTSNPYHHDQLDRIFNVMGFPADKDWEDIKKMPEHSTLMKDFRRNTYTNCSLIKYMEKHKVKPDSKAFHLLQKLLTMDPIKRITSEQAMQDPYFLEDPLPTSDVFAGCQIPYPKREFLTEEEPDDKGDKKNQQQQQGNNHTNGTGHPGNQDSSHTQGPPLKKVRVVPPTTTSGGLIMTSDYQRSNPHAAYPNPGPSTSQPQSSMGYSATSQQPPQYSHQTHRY
Sequence of CDK8/Cyclin C (P24863 whole entry, further chain): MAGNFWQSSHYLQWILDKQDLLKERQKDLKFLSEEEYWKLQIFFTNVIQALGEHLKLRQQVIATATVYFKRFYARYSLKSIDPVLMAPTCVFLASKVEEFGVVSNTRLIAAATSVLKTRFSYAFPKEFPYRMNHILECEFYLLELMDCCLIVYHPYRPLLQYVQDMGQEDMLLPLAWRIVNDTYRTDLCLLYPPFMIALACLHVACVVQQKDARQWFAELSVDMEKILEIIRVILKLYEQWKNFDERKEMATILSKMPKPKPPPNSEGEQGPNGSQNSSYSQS

[21] = target: T2, Cyclin-dependent kinase 9; test: Inhibition of CDK9 (unknown origin)
[22] = Unbound fraction in rat plasma at 37 degC by equilibrium dialysis; assay type: ADME, cell-free
[23] = Unbound fraction in mouse plasma at 37 degC by equilibrium dialysis; assay type: ADME, cell-free
[24] = Unbound fraction in human plasma at 37 degC by equilibrium dialysis; assay type: ADME, cell-free
[25] = Plasma clearance in Han Wistar rat at 1 mg/kg, iv; assay type: ADME, organism-based
[26] = Volume of distribution at steady state in Han Wistar rat at 1 mg/kg, iv; assay type: ADME, organism-based; conditions: in vivo, read-out: Vdss
[27] = Oral bioavailability in Han Wistar rat at 2 mg/kg; assay type: ADME, organism-based; conditions: in vivo
[28] = AUC in SCID mouse at 50 mg/kg, po; assay type: ADME, organism-based; conditions: in vivo
[29] = Aqueous solubility in pH 7.4 phosphate buffer; assay type: physicochemical
[30] = tested on: OCI-Ly10; test: Antitumor activity against human OCI-LY10 cells xenografted in CB.17 SCID mouse assessed as inhibition of tumor growth at 50 mg/kg, po QD dosed 34 days after tumor cell inoculation; assay type: functional, organism-based
[31] = tested on: OCI-Ly10; test: Antitumor activity against human OCI-LY10 cells xenografted in CB.17 SCID mouse assessed as induction of tumor regression at 50 mg/kg, po QD dosed 34 days after tumor cell inoculation and co-treated with 12 mg/kg, po QD ibrutinib; assay type: functional, organism-based
[32] = tested on: OCI-Ly10; test: Growth inhibition of human OCI-LY10 cells at 0.3 nM incubated for 3 days by Alamar blue dye based fluorescence assay (reference value: 3%); assay type: functional; conditions: OCI-Ly10, 72 h, read-out: GI
[33] = tested on: OCI-Ly10; test: Growth inhibition of human OCI-LY10 cells at 2.1 nM incubated for 3 days by Alamar blue dye based fluorescence assay (reference value: 3%); assay type: functional; conditions: OCI-Ly10, 72 h, read-out: GI
[34] = tested on: OCI-Ly10; test: Growth inhibition of human OCI-LY10 cells at 4.2 nM incubated for 3 days by Alamar blue dye based fluorescence assay (reference value: 3%); assay type: functional; conditions: OCI-Ly10, 72 h, read-out: GI
[35] = tested on: OCI-Ly10; test: Growth inhibition of human OCI-LY10 cells at 10 nM incubated for 3 days by Alamar blue dye based fluorescence assay (reference value: 3%); assay type: functional; conditions: OCI-Ly10, 72 h, read-out: GI
[36] = tested on: OCI-Ly10; test: Growth inhibition of human OCI-LY10 cells at 42 nM incubated for 3 days by Alamar blue dye based fluorescence assay (reference value: 3%); assay type: functional; conditions: OCI-Ly10, 72 h, read-out: GI
[37] = tested on: OCI-LY19; test: Growth inhibition of human OCI-LY19 cells at 0.3 nM incubated for 3 days by Alamar blue dye based fluorescence assay (reference value: 3%); assay type: functional; conditions: OCI-LY19, 72 h, read-out: GI
[38] = tested on: OCI-LY19; test: Growth inhibition of human OCI-LY19 cells at 2.1 nM incubated for 3 days by Alamar blue dye based fluorescence assay (reference value: 3%); assay type: functional; conditions: OCI-LY19, 72 h, read-out: GI
[39] = tested on: OCI-LY19; test: Growth inhibition of human OCI-LY19 cells at 4.2 nM incubated for 3 days by Alamar blue dye based fluorescence assay (reference value: 3%); assay type: functional; conditions: OCI-LY19, 72 h, read-out: GI
[40] = tested on: OCI-LY19; test: Growth inhibition of human OCI-LY19 cells at 10 nM incubated for 3 days by Alamar blue dye based fluorescence assay (reference value: 3%); assay type: functional; conditions: OCI-LY19, 72 h, read-out: GI
[41] = tested on: OCI-LY19; test: Growth inhibition of human OCI-LY19 cells at 42 nM incubated for 3 days by Alamar blue dye based fluorescence assay (reference value: 3%); assay type: functional; conditions: OCI-LY19, 72 h, read-out: GI
[42] = tested on: OCI-Ly10; test: Antitumor activity against human OCI-LY10 cells xenografted in CB.17 SCID mouse assessed as induction of tumor stasis at 12 mg/kg, po QD dosed 34 days after tumor cell inoculation; assay type: functional, organism-based

Structure (SMILES): COC(=O)N1CCN([C@H]2CC[C@H](Nc3ncnc4ccc(C)nc34)CC2)CC1
- IC50 [1]: 0.279 µM
- IC50 [2]: 0.84 µM
- logD [3]: 2
- hepatocyte CLint [4]: < 1 µL/min/1e6 cells
- hepatocyte CLint [5]: 5.2 µL/min/1e6 cells
- Papp [6]: 350 nm/s
- efflux ratio [7]: 0.8

Structure (SMILES): CC(=O)N1CCN([C@H]2CC[C@H](Nc3nc(Nc4cnn(C)c4)nc4ccc(C#N)cc34)CC2)CC1
- IC50 [1]: 0.001 µM
- IC50 [2]: 0.4 µM
- logD [3]: 2.3
- hepatocyte CLint [4]: < 1 µL/min/1e6 cells
- hepatocyte CLint [5]: 3.2 µL/min/1e6 cells
- Papp [6]: < 2 nm/s
- efflux ratio [7]: 323
- clearance [8]: 1.02 L/h/kg

Structure (SMILES): COC(=O)N1CCN([C@H]2CC[C@H](Nc3nc(Nc4cnn(C)c4)nc4ccc(C5(C#N)CC5)nc34)CC2)CC1
- IC50 [1]: 0.017 µM
- IC50 [2]: 0.061 µM
- logD [3]: 3.2
- hepatocyte CLint [4]: 4 µL/min/1e6 cells
- hepatocyte CLint [5]: 7.3 µL/min/1e6 cells

Structure (SMILES): Cn1cc(Nc2nc(N[C@H]3CC[C@H](N4CCOCC4)CC3)c3cc(C#N)ccc3n2)cn1
- IC50 [1]: 0.002 µM
- IC50 [2]: 0.059 µM
- logD [3]: 2.6
- hepatocyte CLint [4]: < 1 µL/min/1e6 cells
- hepatocyte CLint [5]: 18 µL/min/1e6 cells
- efflux ratio [7]: 94
- clearance [8]: 1.86 L/h/kg
- bioavailability [9]: 5%

Structure (SMILES): COC(=O)N1CCN([C@H]2CC[C@H](Nc3ncnc4ccc(C#N)cc34)CC2)CC1
- logD [3]: 2.2
- hepatocyte CLint [4]: < 1 µL/min/1e6 cells
- hepatocyte CLint [5]: < 1.6 µL/min/1e6 cells
- Papp [6]: 200 nm/s
- clearance [8]: 0.444 L/h/kg
- bioavailability [9]: > 100%
- inhibition [10]: 84%
- inhibition [11]: 58%
- inhibition [12]: 53%
- inhibition [13]: 51%
- IC50 [14]: 0.044 µM
- IC50 [15]: 1.7 µM
- IC50 [16]: 0.36 µM
- IC50 [17]: > 10 µM
- IC50 [18]: 0.61 µM
- IC50 [19]: 3.1 µM
- IC50 [20]: 0.068 µM
- IC50 [21]: 0.37 µM
- fraction unbound [22]: 0.05
- fraction unbound [23]: 0.28
- fraction unbound [24]: 0.23
- clearance [25]: 0.444 L/h/kg
- Vd [26]: 1.3 L/kg
- bioavailability [27]: > 100%
- AUC [28]: 390 µM·h
- solubility [29]: 130 µM (≈ 51.3 µg/mL)
- TGI [30]: Active
- Activity [31]: Active

Structure (SMILES): C=CC(=O)N1CCC[C@@H](n2nc(-c3ccc(Oc4ccccc4)cc3)c3c(N)ncnc32)C1 [IBRUTINIB]
- inhibition of growth at 0.0003 µM [32]: 5%
- inhibition of growth at 0.0021 µM [33]: 36%
- inhibition of growth at 0.0042 µM [34]: 60%
- inhibition of growth at 0.01 µM [35]: 83%
- inhibition of growth at 0.042 µM [36]: 93%
- inhibition of growth at 0.0003 µM [37]: 3%
- inhibition of growth at 0.0021 µM [38]: 7%
- inhibition of growth at 0.0042 µM [39]: 6%
- inhibition of growth at 0.01 µM [40]: 7%
- inhibition of growth at 0.042 µM [41]: 11%
- Activity [42]: Active

Structure (SMILES): COC(=O)N1CCN([C@H]2CC[C@H](Nc3nc(Nc4cnn(C)c4)nc4ccc(C)nc34)CC2)CC1
- IC50 [1]: 0.009 µM
- IC50 [2]: 0.14 µM
- logD [3]: 2.6
- hepatocyte CLint [4]: 13 µL/min/1e6 cells
- hepatocyte CLint [5]: 10 µL/min/1e6 cells
- Papp [6]: 79 nm/s
- efflux ratio [7]: 0.9
